For series [1] the following is noted: cited from earlier work.
Series [2] is described as follows: Solubility in toluene (antisolvent). Type of series: physicochemical. As to the method: When the volume was reduced to 100-150 ml, another portion of toluene was added and the procedure repeated.
Series [3] can be described thus: Differential Scanning Calorimetry (DSC). Type of series: physicochemical. The settings on record: dry amorphous lisinopril. The protocol: Differential Scanning Calorimetry (DSC) was performed on approximately 0.5-3 mg sample, using a Mettler DSC820 instrument, according to standard methods, for example those described in Höhne et al. (1996) Differential scanning Calorimetry, Springer, Berlin.
(Differential scanning calorimetry records heat flow against a reference as temperature is scanned.)

Series [4] in a line: Dynamic vapour sorption (DVS) stability test. Format: physicochemical. The settings on record: first sorption process (Cycle 1 Sorp), FIG. 3.
The nature of series [5]: Thermal Mechanical Analysis (TMA). Type of series: physicochemical. The settings on record: heating rate 10° C./min, 30-160° C. The protocol: The method involves compressing 140 mg of material in a punch and die (3 mm) to 2 KN. The compressed pellet was then placed on the TMA and the 1.1 mm probe placed on the top face. A heating rate of 10° C./min was used and the sample was heated from 30-160° C.

Each structure is given as a SMILES string.

In the case of `NCCCC[C@H](NC(CCc1ccccc1)C(=O)O)C(=O)N1CCC[C@H]1C(=O)O` (stereo partly drawn) [lisinopril, (S)-1-[N^2-(1-carboxy-3-phenylpropyl]-L-lysyl]-L-proline], the “effective half-life of accumulation” value in series [1] (multiple dosing) is given as “about 12.6 hours”. In series [1] (oral administration), the “time to peak serum concentrations” value is no more than 7 h. Besides, the solubility in toluene entry in series [2] is listed as “insoluble”.

Turning to `NCCCC[C@H](NC(CCc1ccccc1)C(=O)O)C(=O)N1CCC[C@H]1C(=O)O` (stereo partly drawn) [amorphous lisinopril, (S)-1-[N^2-(1-carboxy-3-phenylpropyl]-L-lysyl]-L-proline], the “glass transition temperature (Tg)” value in series [3] turned out to be 125 °C. Further, in series [4], the “physical stability to water-induced crystallisation (DVS)” value is listed as “no expulsion of absorbed water due to recrystallisation was observed”. Further, in series [5], the glass transition temperature was 129 °C.

These data come from US6462174B1, “Amorphous compound” (AstraZeneca AB, priority 2001, dated 2002).
